Blank lines part the entries; values can stand above or below the molecule they belong to.
Key:
Test in all cases: radiometric filter-binding kinase assay
[1] = test system: AKT2 (human), P31751 [S474D]
[2] = target: AURKB (human) (UniProt Q96GD4)
[3] = target: CAMKK2 (human) (UniProt Q96RR4)
[4] = target: CDK2 CCNA2 (human) (UniProt P20248+P24941)
[5] = target: CHEK1 (human) (UniProt O14757)
[6] = target: CSNK2A1 (human) (UniProt P68400)
[7] = target: CaMK1 (human) (UniProt Q14012)
[8] = target: DYRK1A (human) (UniProt Q13627)
[9] = target: EPHB3 (human) (UniProt P54753)
[10] = target: IGF1R (human) (UniProt P08069)
Chain of IGF1R (human) (P08069 whole entry, looked up): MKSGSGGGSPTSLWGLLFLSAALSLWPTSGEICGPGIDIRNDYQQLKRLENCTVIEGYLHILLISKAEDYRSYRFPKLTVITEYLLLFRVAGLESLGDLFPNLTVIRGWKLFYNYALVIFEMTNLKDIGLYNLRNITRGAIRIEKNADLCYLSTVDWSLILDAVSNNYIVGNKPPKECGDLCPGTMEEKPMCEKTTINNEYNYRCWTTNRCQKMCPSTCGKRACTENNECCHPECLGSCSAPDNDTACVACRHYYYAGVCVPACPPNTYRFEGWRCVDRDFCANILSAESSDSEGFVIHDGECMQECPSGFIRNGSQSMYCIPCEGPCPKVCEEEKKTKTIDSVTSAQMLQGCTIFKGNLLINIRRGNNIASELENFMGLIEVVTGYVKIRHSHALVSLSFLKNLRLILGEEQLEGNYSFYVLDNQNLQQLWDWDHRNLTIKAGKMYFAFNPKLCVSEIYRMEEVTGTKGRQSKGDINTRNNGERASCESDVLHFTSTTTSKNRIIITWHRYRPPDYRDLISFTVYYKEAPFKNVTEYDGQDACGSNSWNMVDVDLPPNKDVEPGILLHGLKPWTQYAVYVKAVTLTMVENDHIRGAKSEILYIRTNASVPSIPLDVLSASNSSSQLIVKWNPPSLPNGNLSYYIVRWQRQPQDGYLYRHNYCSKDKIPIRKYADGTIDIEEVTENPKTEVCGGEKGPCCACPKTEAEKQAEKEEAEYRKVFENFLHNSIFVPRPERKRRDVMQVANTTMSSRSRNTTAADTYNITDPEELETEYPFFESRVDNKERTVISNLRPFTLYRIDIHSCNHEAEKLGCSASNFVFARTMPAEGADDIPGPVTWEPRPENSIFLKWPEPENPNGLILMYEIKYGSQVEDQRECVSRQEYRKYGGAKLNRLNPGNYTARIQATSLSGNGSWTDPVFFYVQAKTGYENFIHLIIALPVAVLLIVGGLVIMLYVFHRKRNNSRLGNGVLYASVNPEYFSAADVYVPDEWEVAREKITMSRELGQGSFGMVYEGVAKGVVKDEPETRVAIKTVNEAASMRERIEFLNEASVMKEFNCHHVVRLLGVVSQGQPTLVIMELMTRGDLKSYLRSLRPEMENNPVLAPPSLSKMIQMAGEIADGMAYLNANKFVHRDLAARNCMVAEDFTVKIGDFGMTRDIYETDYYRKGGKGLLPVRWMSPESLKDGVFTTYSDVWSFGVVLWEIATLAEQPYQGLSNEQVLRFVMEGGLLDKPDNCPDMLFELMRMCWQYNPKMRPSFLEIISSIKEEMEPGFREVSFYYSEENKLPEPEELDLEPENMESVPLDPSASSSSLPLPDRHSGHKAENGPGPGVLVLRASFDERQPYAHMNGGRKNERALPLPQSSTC

[11] = target: INSR (human) (UniProt P06213)
[12] = target: INSRR (human) (UniProt P14616)
Chain of INSRR (human) (P14616 whole entry, looked up): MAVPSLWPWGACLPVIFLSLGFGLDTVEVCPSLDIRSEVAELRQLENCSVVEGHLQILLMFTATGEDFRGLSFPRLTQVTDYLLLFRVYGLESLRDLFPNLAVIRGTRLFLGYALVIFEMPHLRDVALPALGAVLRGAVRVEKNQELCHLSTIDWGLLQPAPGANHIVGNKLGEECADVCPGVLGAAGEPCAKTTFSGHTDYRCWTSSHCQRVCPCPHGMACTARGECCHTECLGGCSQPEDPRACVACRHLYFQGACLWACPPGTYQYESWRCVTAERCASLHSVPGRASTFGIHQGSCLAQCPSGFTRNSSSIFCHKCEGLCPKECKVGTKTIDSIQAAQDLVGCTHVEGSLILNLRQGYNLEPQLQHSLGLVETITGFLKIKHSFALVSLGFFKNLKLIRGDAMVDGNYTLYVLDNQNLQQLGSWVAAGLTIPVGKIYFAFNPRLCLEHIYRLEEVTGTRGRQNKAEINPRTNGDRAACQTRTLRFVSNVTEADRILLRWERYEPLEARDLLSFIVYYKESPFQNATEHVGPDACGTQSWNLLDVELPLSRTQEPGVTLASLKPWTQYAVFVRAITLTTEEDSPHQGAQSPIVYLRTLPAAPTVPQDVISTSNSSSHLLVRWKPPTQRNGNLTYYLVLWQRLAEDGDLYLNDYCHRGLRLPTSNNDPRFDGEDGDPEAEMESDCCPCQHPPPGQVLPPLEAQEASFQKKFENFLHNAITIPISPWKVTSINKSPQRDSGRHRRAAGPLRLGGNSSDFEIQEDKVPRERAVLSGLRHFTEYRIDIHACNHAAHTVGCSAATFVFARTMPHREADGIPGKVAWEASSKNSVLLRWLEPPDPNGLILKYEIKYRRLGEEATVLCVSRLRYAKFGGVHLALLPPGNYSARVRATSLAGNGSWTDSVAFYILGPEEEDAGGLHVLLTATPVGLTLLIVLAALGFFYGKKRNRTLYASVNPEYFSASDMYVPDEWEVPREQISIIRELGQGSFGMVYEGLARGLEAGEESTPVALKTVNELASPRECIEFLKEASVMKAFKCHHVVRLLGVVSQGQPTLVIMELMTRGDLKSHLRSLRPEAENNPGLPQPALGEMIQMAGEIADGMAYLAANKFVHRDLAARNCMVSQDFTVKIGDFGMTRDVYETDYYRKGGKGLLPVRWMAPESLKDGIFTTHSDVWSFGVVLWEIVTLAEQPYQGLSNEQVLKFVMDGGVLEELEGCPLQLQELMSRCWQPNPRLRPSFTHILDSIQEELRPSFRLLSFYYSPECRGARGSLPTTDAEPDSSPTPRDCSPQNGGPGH

[13] = target: JAK2 JH1 JH2 (human) (UniProt O60674)
[14] = test system: LCK (mouse); conditions: accession and sequence are those of the human protein
[15] = target: MAP2K1 (human) (UniProt Q02750)
Chain of MAP2K1 (human) (Q02750 whole entry, looked up): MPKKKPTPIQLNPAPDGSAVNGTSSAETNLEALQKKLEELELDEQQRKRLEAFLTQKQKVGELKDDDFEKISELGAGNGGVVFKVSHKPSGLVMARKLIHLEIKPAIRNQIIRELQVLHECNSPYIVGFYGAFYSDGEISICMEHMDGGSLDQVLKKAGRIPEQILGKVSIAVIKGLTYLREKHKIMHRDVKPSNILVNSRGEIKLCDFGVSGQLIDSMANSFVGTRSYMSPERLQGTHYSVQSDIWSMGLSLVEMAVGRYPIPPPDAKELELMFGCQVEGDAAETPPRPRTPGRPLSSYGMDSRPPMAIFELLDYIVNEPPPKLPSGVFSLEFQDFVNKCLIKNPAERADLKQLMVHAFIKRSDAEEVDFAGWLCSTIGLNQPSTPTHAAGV

[16] = target: MAP3K11 (human) (UniProt Q16584)
Chain of MAP3K11 (human) (Q16584 whole entry, looked up): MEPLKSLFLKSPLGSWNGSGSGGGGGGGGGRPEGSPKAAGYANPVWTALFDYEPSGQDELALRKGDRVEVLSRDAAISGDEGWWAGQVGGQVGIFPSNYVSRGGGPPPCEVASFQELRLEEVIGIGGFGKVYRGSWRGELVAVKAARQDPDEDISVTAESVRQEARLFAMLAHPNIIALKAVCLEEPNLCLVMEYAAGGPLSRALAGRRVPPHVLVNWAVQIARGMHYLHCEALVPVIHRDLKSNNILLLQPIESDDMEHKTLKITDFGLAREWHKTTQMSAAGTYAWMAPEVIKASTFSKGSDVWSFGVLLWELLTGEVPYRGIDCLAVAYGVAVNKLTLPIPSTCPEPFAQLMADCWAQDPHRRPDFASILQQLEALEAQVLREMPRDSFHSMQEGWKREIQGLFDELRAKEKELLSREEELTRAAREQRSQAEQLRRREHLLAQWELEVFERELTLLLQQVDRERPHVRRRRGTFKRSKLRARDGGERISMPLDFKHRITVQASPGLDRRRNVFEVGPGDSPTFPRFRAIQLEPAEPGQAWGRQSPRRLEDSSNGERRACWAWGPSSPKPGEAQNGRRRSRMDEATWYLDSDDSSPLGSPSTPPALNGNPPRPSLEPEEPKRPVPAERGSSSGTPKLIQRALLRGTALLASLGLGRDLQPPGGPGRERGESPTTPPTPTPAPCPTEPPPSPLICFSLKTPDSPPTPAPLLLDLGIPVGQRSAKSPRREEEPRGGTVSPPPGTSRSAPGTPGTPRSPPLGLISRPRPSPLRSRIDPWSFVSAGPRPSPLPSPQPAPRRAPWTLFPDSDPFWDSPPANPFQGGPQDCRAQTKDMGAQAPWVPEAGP

[17] = target: MAP3K9 (human) (UniProt P80192)
[18] = target: MAPK10 (human) (UniProt P53779)
[19] = target: MAPK13 (human) (UniProt O15264)
[20] = target: MARK3 (human) (UniProt P27448)
[21] = target: MARK4 (human) (UniProt Q96L34)
[22] = target: MINK1 (human) (UniProt Q8N4C8)
[23] = target: MKNK1 (human) (UniProt Q9BUB5)
[24] = target: MST4 (human) (UniProt Q9P289)
[25] = target: NTRK1 (human) (UniProt P04629)
[26] = target: NUAK1 (human) (UniProt O60285)
Chain of NUAK1 (human) (O60285 whole entry, looked up): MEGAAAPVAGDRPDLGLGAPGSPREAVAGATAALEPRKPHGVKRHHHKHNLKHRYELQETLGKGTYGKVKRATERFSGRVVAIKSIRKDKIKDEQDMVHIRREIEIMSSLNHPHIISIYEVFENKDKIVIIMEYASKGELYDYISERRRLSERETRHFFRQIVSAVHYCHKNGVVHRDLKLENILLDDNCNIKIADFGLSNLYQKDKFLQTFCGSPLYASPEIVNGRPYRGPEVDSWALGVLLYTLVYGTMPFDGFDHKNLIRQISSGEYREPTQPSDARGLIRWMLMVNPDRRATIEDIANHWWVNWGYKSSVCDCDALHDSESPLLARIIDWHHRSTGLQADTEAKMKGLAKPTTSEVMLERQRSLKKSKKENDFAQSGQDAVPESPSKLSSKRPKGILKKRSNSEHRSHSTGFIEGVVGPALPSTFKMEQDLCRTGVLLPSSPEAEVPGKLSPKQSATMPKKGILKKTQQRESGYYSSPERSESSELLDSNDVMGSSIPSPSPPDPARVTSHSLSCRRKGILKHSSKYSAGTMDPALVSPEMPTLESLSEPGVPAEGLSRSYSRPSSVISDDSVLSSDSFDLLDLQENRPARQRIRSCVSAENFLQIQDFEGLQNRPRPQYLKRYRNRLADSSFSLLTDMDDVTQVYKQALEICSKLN

[27] = target: PAK4 (human) (UniProt O96013)
[28] = target: PHKG1 (human) (UniProt Q16816)
[29] = target: PIM2 (human) (UniProt Q9P1W9)
[30] = test system: PRKAA1 or PRKAA2 (rat); conditions: accession and sequence are those of the human protein
[31] = target: PRKACA (human) (UniProt P17612)
[32] = target: PRKCZ (human) (UniProt Q05513)
[33] = target: RIPK2 (human) (UniProt O43353)
[34] = target: SRC (human) (UniProt P12931)
[35] = target: SYK (human) (UniProt P43405)
[36] = target: YES1 (human) (UniProt P07947)

Chain of CHEK1 (human) (O14757 whole entry, looked up): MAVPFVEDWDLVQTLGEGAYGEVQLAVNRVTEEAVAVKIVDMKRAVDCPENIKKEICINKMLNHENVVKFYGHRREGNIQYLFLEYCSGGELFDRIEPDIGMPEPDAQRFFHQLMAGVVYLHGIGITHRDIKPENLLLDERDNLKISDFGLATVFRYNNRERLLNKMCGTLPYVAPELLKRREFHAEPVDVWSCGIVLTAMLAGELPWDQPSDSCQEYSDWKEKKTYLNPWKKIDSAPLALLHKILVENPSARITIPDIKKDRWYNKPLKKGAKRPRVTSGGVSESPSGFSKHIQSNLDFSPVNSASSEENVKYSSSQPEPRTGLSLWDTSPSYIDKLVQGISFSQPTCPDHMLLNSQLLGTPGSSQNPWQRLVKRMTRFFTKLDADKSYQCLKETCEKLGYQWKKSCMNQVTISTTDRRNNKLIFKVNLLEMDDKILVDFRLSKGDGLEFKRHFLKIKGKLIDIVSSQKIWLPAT

residual activity ([1]; compound 1.0 µM): 99%
residual activity ([1]; compound 10.0 µM): 91%
residual activity ([2]; compound 1.0 µM): 93%
residual activity ([2]; compound 10.0 µM): 87%
residual activity ([3]; compound 1.0 µM): 97%
residual activity ([3]; compound 10.0 µM): 108%
residual activity ([4]; compound 1.0 µM): 103%
residual activity ([4]; compound 10.0 µM): 97%
residual activity ([5]; compound 1.0 µM): 97%
residual activity ([5]; compound 10.0 µM): 90%
residual activity ([6]; compound 1.0 µM): 98%
residual activity ([6]; compound 10.0 µM): 103%
residual activity ([7]; compound 1.0 µM): 98%
residual activity ([7]; compound 10.0 µM): 81%
residual activity ([8]; compound 1.0 µM): 103%
residual activity ([8]; compound 10.0 µM): 91%
residual activity ([9]; compound 1.0 µM): 96%
residual activity ([9]; compound 10.0 µM): 112%
residual activity ([10]; compound 1.0 µM): 105%
residual activity ([10]; compound 10.0 µM): 102%
residual activity ([11]; compound 1.0 µM): 110%
residual activity ([11]; compound 10.0 µM): 103%
residual activity ([12]; compound 1.0 µM): 104%
residual activity ([12]; compound 10.0 µM): 99%
residual activity ([13]; compound 1.0 µM): 103%
residual activity ([13]; compound 10.0 µM): 90%
residual activity ([14]; compound 1.0 µM): 96%
residual activity ([14]; compound 10.0 µM): 102%
residual activity ([15]; compound 1.0 µM): 77%
residual activity ([15]; compound 10.0 µM): 65%
residual activity ([16]; compound 1.0 µM): 108%
residual activity ([16]; compound 10.0 µM): 98%
residual activity ([17]; compound 1.0 µM): 95%
residual activity ([17]; compound 10.0 µM): 89%
residual activity ([18]; compound 1.0 µM): 83%
residual activity ([18]; compound 10.0 µM): 86%
residual activity ([19]; compound 1.0 µM): 97%
residual activity ([19]; compound 10.0 µM): 91%
residual activity ([20]; compound 1.0 µM): 108%
residual activity ([20]; compound 10.0 µM): 108%
residual activity ([21]; compound 10.0 µM): 74%
residual activity ([22]; compound 1.0 µM): 106%
residual activity ([22]; compound 10.0 µM): 108%
residual activity ([23]; compound 1.0 µM): 101%
residual activity ([23]; compound 10.0 µM): 99%
residual activity ([24]; compound 1.0 µM): 105%
residual activity ([24]; compound 10.0 µM): 102%
residual activity ([25]; compound 1.0 µM): 103%
residual activity ([25]; compound 10.0 µM): 112%
residual activity ([26]; compound 1.0 µM): 115%
residual activity ([26]; compound 10.0 µM): 100%
residual activity ([27]; compound 1.0 µM): 101%
residual activity ([27]; compound 10.0 µM): 89%
residual activity ([28]; compound 1.0 µM): 103%
residual activity ([28]; compound 10.0 µM): 96%
residual activity ([29]; compound 1.0 µM): 118%
residual activity ([29]; compound 10.0 µM): 96%
residual activity ([30]; compound 1.0 µM): 99%
residual activity ([30]; compound 10.0 µM): 103%
residual activity ([31]; compound 1.0 µM): 90%
residual activity ([31]; compound 10.0 µM): 97%
residual activity ([32]; compound 1.0 µM): 109%
residual activity ([32]; compound 10.0 µM): 97%
residual activity ([33]; compound 1.0 µM): 86%
residual activity ([33]; compound 10.0 µM): 87%
residual activity ([34]; compound 1.0 µM): 123%
residual activity ([34]; compound 10.0 µM): 102%
residual activity ([35]; compound 1.0 µM): 99%
residual activity ([35]; compound 10.0 µM): 103%
residual activity ([36]; compound 1.0 µM): 118%
residual activity ([36]; compound 10.0 µM): 109%
Compound: Cc1ccc(=O)n(-c2ccccc2)c1

residual activity ([1]; compound 10.0 µM): 86%
residual activity ([1]; compound 50.0 µM): 80%
residual activity ([2]; compound 1.0 µM): 90%
residual activity ([2]; compound 10.0 µM): 99%
residual activity ([2]; compound 50.0 µM): 83%
residual activity ([3]; compound 10.0 µM): 98%
residual activity ([3]; compound 50.0 µM): 104%
residual activity ([4]; compound 1.0 µM): 90%
residual activity ([4]; compound 10.0 µM): 76%
residual activity ([4]; compound 50.0 µM): 80%
residual activity ([5]; compound 1.0 µM): 82%
residual activity ([5]; compound 10.0 µM): 95%
residual activity ([5]; compound 50.0 µM): 95%
residual activity ([6]; compound 10.0 µM): 86%
residual activity ([6]; compound 50.0 µM): 86%
residual activity ([7]; compound 1.0 µM): 89%
residual activity ([7]; compound 10.0 µM): 107%
residual activity ([7]; compound 50.0 µM): 101%
residual activity ([8]; compound 1.0 µM): 98%
residual activity ([8]; compound 50.0 µM): 89%
residual activity ([9]; compound 50.0 µM): 96%
residual activity ([10]; compound 10.0 µM): 76%
residual activity ([10]; compound 50.0 µM): 56%
residual activity ([11]; compound 10.0 µM): 66%
residual activity ([11]; compound 50.0 µM): 77%
residual activity ([12]; compound 10.0 µM): 101%
residual activity ([12]; compound 50.0 µM): 101%
residual activity ([13]; compound 10.0 µM): 80%
residual activity ([13]; compound 50.0 µM): 86%
residual activity ([14]; compound 1.0 µM): 84%
residual activity ([14]; compound 50.0 µM): 106%
residual activity ([15]; compound 1.0 µM): 86%
residual activity ([15]; compound 10.0 µM): 89%
residual activity ([15]; compound 50.0 µM): 99%
residual activity ([16]; compound 10.0 µM): 104%
residual activity ([16]; compound 50.0 µM): 96%
residual activity ([17]; compound 10.0 µM): 94%
residual activity ([17]; compound 50.0 µM): 102%
residual activity ([18]; compound 1.0 µM): 88%
residual activity ([18]; compound 10.0 µM): 85%
residual activity ([18]; compound 50.0 µM): 89%
residual activity ([19]; compound 1.0 µM): 106%
residual activity ([19]; compound 10.0 µM): 95%
residual activity ([19]; compound 50.0 µM): 92%
residual activity ([20]; compound 1.0 µM): 100%
residual activity ([20]; compound 10.0 µM): 108%
residual activity ([21]; compound 10.0 µM): 106%
residual activity ([21]; compound 50.0 µM): 106%
residual activity ([22]; compound 10.0 µM): 68%
residual activity ([22]; compound 50.0 µM): 76%
residual activity ([23]; compound 1.0 µM): 86%
residual activity ([23]; compound 10.0 µM): 112%
residual activity ([24]; compound 10.0 µM): 102%
residual activity ([24]; compound 50.0 µM): 100%
residual activity ([25]; compound 10.0 µM): 91%
residual activity ([25]; compound 50.0 µM): 89%
residual activity ([26]; compound 10.0 µM): 88%
residual activity ([26]; compound 50.0 µM): 86%
residual activity ([27]; compound 10.0 µM): 86%
residual activity ([27]; compound 50.0 µM): 90%
residual activity ([28]; compound 1.0 µM): 110%
residual activity ([28]; compound 10.0 µM): 89%
residual activity ([28]; compound 50.0 µM): 81%
residual activity ([29]; compound 1.0 µM): 83%
residual activity ([29]; compound 10.0 µM): 104%
residual activity ([29]; compound 50.0 µM): 98%
residual activity ([30]; compound 1.0 µM): 98%
residual activity ([30]; compound 10.0 µM): 94%
residual activity ([30]; compound 50.0 µM): 91%
residual activity ([31]; compound 1.0 µM): 82%
residual activity ([31]; compound 10.0 µM): 91%
residual activity ([31]; compound 50.0 µM): 93%
residual activity ([32]; compound 10.0 µM): 101%
residual activity ([32]; compound 50.0 µM): 93%
residual activity ([33]; compound 10.0 µM): 104%
residual activity ([33]; compound 50.0 µM): 90%
residual activity ([34]; compound 1.0 µM): 100%
residual activity ([34]; compound 10.0 µM): 87%
residual activity ([34]; compound 50.0 µM): 94%
residual activity ([35]; compound 10.0 µM): 100%
residual activity ([35]; compound 50.0 µM): 98%
residual activity ([36]; compound 10.0 µM): 91%
residual activity ([36]; compound 50.0 µM): 102%
Compound: CCCC(CCC)C(=O)O

Reference: the kinase profiling compilation of Christmann-Franck et al. (2016)
